Measured values: US11613556B2, “Oxysterols and methods of use thereof” (Sage Therapeutics, Inc., priority 2016, dated 2023)
Read-outs that look alike come from different tables or passages of the source.

What was measured:
[1] = target: GluN1/GluN2A glutamate receptors (human GRIN1/GRIN2A) expressed in HEK293 cells (Homo sapiens (Human), UniProt Q05586+Q12879); test: Whole-cell patch clamp of mammalian cells (Ionworks Barracuda), positive allosteric modulation, GluN1/GluN2A; assay type: cell-based; settings: for Emax: read-out: GluN2A PCA EMax (%)
GluN1/GluN2A glutamate receptors (human GRIN1/GRIN2A) expressed in HEK293 cells, sequence (Q12879 whole entry, looked up, other chains not shown): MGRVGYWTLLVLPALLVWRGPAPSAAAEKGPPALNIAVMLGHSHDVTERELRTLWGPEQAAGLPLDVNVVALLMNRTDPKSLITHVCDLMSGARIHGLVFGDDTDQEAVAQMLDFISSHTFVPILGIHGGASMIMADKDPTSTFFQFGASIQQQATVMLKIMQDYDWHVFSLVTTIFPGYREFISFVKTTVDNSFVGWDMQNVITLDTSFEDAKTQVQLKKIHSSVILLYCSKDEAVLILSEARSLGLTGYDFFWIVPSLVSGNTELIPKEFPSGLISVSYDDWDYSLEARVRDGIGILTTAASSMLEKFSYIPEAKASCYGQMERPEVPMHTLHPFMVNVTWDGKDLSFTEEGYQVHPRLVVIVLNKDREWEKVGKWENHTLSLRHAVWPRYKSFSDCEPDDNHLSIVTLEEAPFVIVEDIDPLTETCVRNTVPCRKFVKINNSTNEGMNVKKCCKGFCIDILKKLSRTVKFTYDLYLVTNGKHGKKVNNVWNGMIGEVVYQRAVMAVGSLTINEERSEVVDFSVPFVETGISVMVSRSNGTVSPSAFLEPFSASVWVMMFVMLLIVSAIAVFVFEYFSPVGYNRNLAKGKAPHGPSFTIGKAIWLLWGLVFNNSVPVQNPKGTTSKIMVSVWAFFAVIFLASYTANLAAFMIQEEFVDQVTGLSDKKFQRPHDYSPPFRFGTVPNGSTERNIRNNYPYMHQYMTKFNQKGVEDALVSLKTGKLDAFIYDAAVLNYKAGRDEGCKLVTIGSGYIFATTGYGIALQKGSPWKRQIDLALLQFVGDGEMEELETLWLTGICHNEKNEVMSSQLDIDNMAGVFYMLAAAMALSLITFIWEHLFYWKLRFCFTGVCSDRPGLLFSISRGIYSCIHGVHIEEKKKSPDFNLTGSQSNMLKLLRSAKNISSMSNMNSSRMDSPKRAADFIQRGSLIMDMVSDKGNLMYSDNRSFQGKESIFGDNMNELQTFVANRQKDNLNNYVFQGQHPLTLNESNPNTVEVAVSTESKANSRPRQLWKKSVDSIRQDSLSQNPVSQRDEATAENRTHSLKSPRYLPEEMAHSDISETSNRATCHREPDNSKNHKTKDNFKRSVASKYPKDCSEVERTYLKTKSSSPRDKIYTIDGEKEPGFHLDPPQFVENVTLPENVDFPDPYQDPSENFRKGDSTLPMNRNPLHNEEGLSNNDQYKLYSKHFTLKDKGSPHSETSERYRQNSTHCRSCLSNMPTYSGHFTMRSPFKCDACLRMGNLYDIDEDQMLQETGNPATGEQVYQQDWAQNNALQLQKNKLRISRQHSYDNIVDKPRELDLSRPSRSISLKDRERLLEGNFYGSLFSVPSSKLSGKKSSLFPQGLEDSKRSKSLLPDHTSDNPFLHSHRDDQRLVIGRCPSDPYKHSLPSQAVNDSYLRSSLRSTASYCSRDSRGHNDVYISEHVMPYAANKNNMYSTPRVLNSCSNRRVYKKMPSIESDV
Method: (§1) NMDA potentiation in mammalian cells which expressed NMDA receptors was assessed using the automatic patch-clamp system can be used determine the NAM activity of compounds as described below. An whole cell patch-clamp system can be used determine the PAM activity of compounds as described below.
(§2) The measurements were performed using Ion Works Barracuda platform following this procedure:
(§3) Electrophysiological Procedures: • a) Intracellular solution (mM): 50 mM CsCl, 90 mM CsF, 2 mM MgCl2, 5 mM EGTA, 10 mM HEPES. Adjust to pH 7.2 with CsOH. • b) Extracellular solution, HB-PS (composition in mM): NaCl, 137; KCl, 1.0; CaCl2, 5; HEPES, 10; Glucose, 10; pH adjusted to 7.4 with NaOH (refrigerated until use). • c) Holding potential: −70 mV, potential during agonist/PAM application: −40 mV.
(§4) Recording Procedure: • a) Extracellular buffer will be loaded into the PPC plate wells (11 μL per well). Cell suspension will be pipetted into the wells (9 μL per well) of the PPC planar electrode. • b) Whole-cell recording configuration will be established via patch perforation with membrane currents recorded by on-board patch clamp amplifiers. • c) Two recordings (scans) will be performed. First, during pre-application of test article alone (duration of pre-application—5 min) and second, during test articles and agonist (EC20 L-glutamate and 30 μM glycine) co-application to detect positive modulatory effects of the test article.
(§5) Test Article Administration: The first pre-application will consist of the addition of 20 μL of 2× concentrated test article solution and, second, of 20 μL of 1× concentrated test article and agonist at 10 μL/s (2 second total application time).
(§6) Potentiating Effect of Positive Allosteric Modulators (PAM) on the Channel
(§7) The maximal amplitude of the evoked currents are measured and defined as Peak Current Amplitude (PCA).

[2] = target: GluN2B glutamate receptors expressed in mammalian cells (Homo sapiens (Human), UniProt Q05586+Q13224); test: Whole-cell patch clamp of mammalian cells (Ionworks Barracuda), positive allosteric modulation, GluN2B; assay type: cell-based; settings: for Emax: read-out: GluN2B PCA EMax (%)
GluN2B glutamate receptors expressed in mammalian cells, sequence (Q13224 27-1484, other chains not shown): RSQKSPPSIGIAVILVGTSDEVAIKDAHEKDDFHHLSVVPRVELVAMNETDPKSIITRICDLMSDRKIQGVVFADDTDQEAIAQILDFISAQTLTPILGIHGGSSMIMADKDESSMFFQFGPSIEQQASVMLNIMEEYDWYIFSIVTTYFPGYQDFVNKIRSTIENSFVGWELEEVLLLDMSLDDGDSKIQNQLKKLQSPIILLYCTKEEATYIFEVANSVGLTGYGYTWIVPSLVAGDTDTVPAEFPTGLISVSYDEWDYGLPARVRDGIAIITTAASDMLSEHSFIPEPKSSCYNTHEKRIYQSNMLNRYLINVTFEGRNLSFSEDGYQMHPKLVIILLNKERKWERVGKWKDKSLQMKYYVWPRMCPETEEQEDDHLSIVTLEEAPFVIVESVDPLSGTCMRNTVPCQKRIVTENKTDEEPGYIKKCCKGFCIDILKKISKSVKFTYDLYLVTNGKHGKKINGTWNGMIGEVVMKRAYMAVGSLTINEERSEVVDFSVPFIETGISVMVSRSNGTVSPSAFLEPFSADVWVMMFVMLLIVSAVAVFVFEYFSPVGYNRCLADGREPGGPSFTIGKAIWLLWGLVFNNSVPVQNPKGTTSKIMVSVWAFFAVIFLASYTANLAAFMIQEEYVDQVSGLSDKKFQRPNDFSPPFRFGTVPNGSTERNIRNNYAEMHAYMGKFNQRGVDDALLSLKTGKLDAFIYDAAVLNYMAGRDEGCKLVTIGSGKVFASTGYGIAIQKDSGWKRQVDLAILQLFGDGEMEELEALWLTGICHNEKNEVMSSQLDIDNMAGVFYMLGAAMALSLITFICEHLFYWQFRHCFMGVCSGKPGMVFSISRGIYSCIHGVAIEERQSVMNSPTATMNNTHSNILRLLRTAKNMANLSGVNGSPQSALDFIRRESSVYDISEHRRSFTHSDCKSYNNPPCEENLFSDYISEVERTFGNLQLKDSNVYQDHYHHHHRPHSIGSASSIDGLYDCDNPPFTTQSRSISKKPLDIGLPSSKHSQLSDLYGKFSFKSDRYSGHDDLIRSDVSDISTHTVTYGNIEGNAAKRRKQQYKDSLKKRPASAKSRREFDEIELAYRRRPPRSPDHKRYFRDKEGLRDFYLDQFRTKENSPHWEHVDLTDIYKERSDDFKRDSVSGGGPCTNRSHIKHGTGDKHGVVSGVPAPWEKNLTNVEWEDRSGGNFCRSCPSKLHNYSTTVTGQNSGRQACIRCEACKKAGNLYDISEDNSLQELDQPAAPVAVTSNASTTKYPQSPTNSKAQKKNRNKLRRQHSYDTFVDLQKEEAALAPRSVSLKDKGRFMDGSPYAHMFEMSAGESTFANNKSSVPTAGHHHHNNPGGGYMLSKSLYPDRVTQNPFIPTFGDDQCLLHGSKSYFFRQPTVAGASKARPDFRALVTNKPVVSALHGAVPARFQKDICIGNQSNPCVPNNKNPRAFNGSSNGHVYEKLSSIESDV
Method: as §1, §2, §3, §4, §5, §6, §7

[3] = peak current amplitude, co-application with EC20 L-glutamate and 30 μM glycine, HEK293
[4] = peak current amplitude, co-application with EC20 L-glutamate and 30 μM glycine, read-out: GluN2B PCA EC50
[5] = peak current amplitude, co-application with EC20 L-glutamate and 30 μM glycine

Row | SMILES | EC50 [1] [µM] | Emax [1, 3] [%] | EC50 [2, 4] [µM] | Emax [2, 5] [%] | EC50 ([1]; peak current amplitude, co-application with EC20 L-glutamate and 30 μM glycine, HEK293, read-out: GluN2A PCA EC50) [µM] | EC50 [2] [µM] | Emax [2] [%]
1 | CC[C@]1(O)CC[C@@]2(C)C(=CC[C@H]3[C@@H]4CC[C@H]([C@H](C)[C@@H](O)CCC(C)C)[C@@]4(C)CC[C@@H]32)C1 [Compound 77, (3S,8S,9S,10R,13S,14S,17R)-3-ethyl-17-((2S,3S)-3-hydroxy-6-methylheptan-2-yl)-10,13-dimethyl-2,3,4,7,8,9,10,11,12,13,14,15,16,17-tetradecahydro-1H-cyclopenta[a]phenanthren-3-ol] | > 1 | < 100 | > 1 | < 100 | – | – | –
2 | C[C@@H]([C@H]1CC[C@H]2[C@@H]3CC[C@H]4C[C@](O)(C(F)(F)F)CC[C@]4(C)[C@H]3CC[C@]12C)[C@@H](O)C[C@@H](O)c1ccccc1 [Compound 79, (1R,3S,4S)-4-((3S,5S,8R,9S,10S,13S,14S,17R)-3-hydroxy-10,13-dimethyl-3-(trifluoromethyl)hexadecahydro-1H-cyclopenta[a]phenanthren-17-yl)-1-phenylpentane-1,3-diol] | – | < 100 | – | – | > 1 | > 1 | < 100
3 | CC[C@]1(O)CC[C@H]2[C@H](CC[C@@H]3[C@@H]2CC[C@]2(C)[C@@H]([C@H](C)[C@@H](O)CCC(C)C)CC[C@@H]32)C1 [Compound 82, (3S,5R,8R,9R,10S,13S,14S,17R)-3-ethyl-17-((2S,3S)-3-hydroxy-6-methylheptan-2-yl)-13-methylhexadecahydro-1H-cyclopenta[a]phenanthren-3-ol] | > 1 | < 100 | > 1 | < 100 | – | – | –
